From PubChem BioAssay (NCI)
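Exposure lasted 48 hours, with cells grown in 96-well plates and compounds tested at five concentrations. Abbreviation: GI50, concentration required for 50% inhibition of growth. TGI: total growth inhibition.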

Assays:
Experiment in all cases: inhibition of tumour cell growth, NCI panel, 48 h
[1] = system: T-47D breast
[2] = system: M14 melanoma
[3] = system: NCI-H23 lung
[4] = system: NCI-H226 lung
[5] = system: SF-268 CNS
[6] = system: SNB-75 CNS
[7] = system: COLO 205 colon
[8] = system: SN12C renal
[9] = system: HCT-15 colon
[10] = system: SK-MEL-5 melanoma
[11] = system: BT-549 breast
[12] = system: A549 NSCLC
[13] = system: OVCAR-8 ovarian
[14] = system: OVCAR-5 ovarian
[15] = system: RPMI-8226 leukemia
[16] = system: ACHN renal
[17] = system: HOP-62 NSCLC
[18] = system: 786-0 renal
[19] = system: DU-145 prostate
[20] = system: MALME-3M melanoma
[21] = system: OVCAR-3 ovarian
[22] = system: MDA-MB-231 breast
[23] = system: SK-MEL-2 melanoma
[24] = system: LOX IMVI melanoma
[25] = system: HCT-116 colon
[26] = system: A498 renal
[27] = system: U251 CNS
[28] = system: SW-620 colon
[29] = system: PC-3 prostate
[30] = system: NCI-H522 lung
[31] = system: HOP-92 NSCLC
[32] = system: SK-OV-3 ovarian
[33] = system: KM12 colon
[34] = system: EKVX NSCLC
[35] = system: HL-60(TB) leukemia
[36] = system: MDA-MB-435
[37] = system: SK-MEL-28 melanoma
[38] = system: NCI/ADR-RES ovarian
[39] = system: OVCAR-4 ovarian
[40] = system: CAKI-1 renal
[41] = system: HS 578T breast
[42] = system: SNB-19 CNS
[43] = system: UACC-257 melanoma
[44] = system: HCC-2998 colon
[45] = system: SF-539 CNS
[46] = system: IGROV1 ovarian
[47] = system: NCI-H460 lung
[48] = system: UO-31 renal
[49] = system: UACC-62 melanoma
[50] = system: HT29 colon
[51] = system: MCF7 breast
[52] = system: TK-10 renal
[53] = system: CCRF-CEM leukemia
[54] = system: SF-295 CNS
[55] = system: K-562 leukemia
[56] = system: RXF 393 renal
[57] = system: MOLT-4 leukemia

CC1SC2(CCC(c3ccccc3)CC2)N(NC(=O)c2[nH]c3ccc(F)cc3c2-c2ccccc2)C1=O (stereo unspecified)
GI50 [1]: 14.2 µM | TGI [1]: > 100 µM | GI50 [2]: 5.67 µM | TGI [2]: 21.9 µM | GI50 [3]: 4.4 µM | TGI [3]: 19 µM | GI50 [4]: 11 µM | TGI [4]: 29.8 µM | GI50 [5]: 21.2 µM | TGI [5]: > 100 µM | GI50 [6]: 19.4 µM | TGI [6]: 42.2 µM | GI50 [7]: 2.96 µM | TGI [7]: 10.5 µM | GI50 [8]: 3.56 µM | TGI [8]: 12.7 µM | GI50 [9]: 2.43 µM | TGI [9]: 11.1 µM | GI50 [10]: 3.85 µM | TGI [10]: 21.6 µM | GI50 [11]: 5.45 µM | TGI [11]: 34.6 µM | GI50 [12]: 7.72 µM | TGI [12]: 46.8 µM | GI50 [13]: 2.87 µM | TGI [13]: 19 µM | GI50 [14]: 18.5 µM | TGI [14]: 43.8 µM | GI50 [15]: 0.804 µM | TGI [15]: 2.91 µM | GI50 [16]: 3.4 µM | TGI [16]: 14.9 µM | GI50 [17]: 4.59 µM | TGI [17]: 23.5 µM | GI50 [18]: 2.92 µM | TGI [18]: 12.2 µM | GI50 [19]: 4.33 µM | TGI [19]: 17.8 µM | GI50 [20]: 16 µM | TGI [20]: 49.8 µM | GI50 [21]: 4.33 µM | TGI [21]: 53.8 µM | GI50 [22]: 14.8 µM | TGI [22]: 44 µM | GI50 [23]: 14 µM | TGI [23]: 38.6 µM | GI50 [24]: 2.9 µM | TGI [24]: 14 µM | GI50 [25]: 1.94 µM | TGI [25]: 4.56 µM | GI50 [26]: 13 µM | TGI [26]: 28.2 µM | GI50 [27]: 4.09 µM | TGI [27]: 24 µM | GI50 [28]: 6.57 µM | TGI [28]: > 100 µM | GI50 [29]: 1.56 µM | TGI [29]: 5.34 µM | GI50 [30]: 7.21 µM | TGI [30]: 24.6 µM | GI50 [31]: 1.33 µM | TGI [31]: 3.65 µM | GI50 [32]: 54.3 µM | TGI [32]: > 100 µM | GI50 [33]: 2.32 µM | TGI [33]: 6.91 µM | GI50 [34]: 12.4 µM | TGI [34]: 54.2 µM | GI50 [35]: 1.31 µM | TGI [35]: 4.53 µM | GI50 [36]: 6.11 µM | TGI [36]: 39.3 µM | GI50 [37]: 5.34 µM | TGI [37]: 18.1 µM | GI50 [38]: 3.58 µM | TGI [38]: 23.4 µM | GI50 [39]: 3.87 µM | TGI [39]: 18.3 µM | GI50 [40]: 4.38 µM | TGI [40]: 24.5 µM | GI50 [41]: 12 µM | TGI [41]: 68.3 µM | GI50 [42]: 26.6 µM | TGI [42]: > 100 µM | GI50 [43]: 19 µM | TGI [43]: 53.9 µM | GI50 [44]: 2.51 µM | TGI [44]: 7.05 µM | GI50 [45]: 20 µM | TGI [45]: 49.3 µM | GI50 [46]: 3.89 µM | TGI [46]: 20 µM | GI50 [47]: 4.28 µM | TGI [47]: 40.2 µM | GI50 [48]: 6.48 µM | TGI [48]: 33.1 µM | GI50 [49]: 6.21 µM | TGI [49]: 27.4 µM | GI50 [50]: 1.67 µM | TGI [50]: 4.18 µM | GI50 [51]: 4.78 µM | TGI [51]: 24.1 µM | GI50 [52]: 7.57 µM | TGI [52]: > 100 µM | GI50 [53]: 1.59 µM | TGI [53]: 13.4 µM | GI50 [54]: 12.1 µM | TGI [54]: 69 µM | GI50 [55]: 2.11 µM | TGI [55]: 6.1 µM | GI50 [56]: 2.22 µM | TGI [56]: 7.49 µM

C[N+](C)(CCCCCC[N+](C)(C)CCCN1C(=O)c2cc3ccccc3cc2C1=O)CCCN1C(=O)c2cc3ccccc3cc2C1=O
GI50 [1]: > 37.5 µM | TGI [1]: > 37.5 µM | GI50 [2]: > 37.5 µM | TGI [2]: > 37.5 µM | GI50 [3]: > 37.5 µM | TGI [3]: > 37.5 µM | GI50 [4]: > 37.5 µM | TGI [4]: > 37.5 µM | GI50 [5]: > 37.5 µM | TGI [5]: > 37.5 µM | GI50 [6]: > 37.5 µM | TGI [6]: > 37.5 µM | GI50 [7]: > 37.5 µM | TGI [7]: > 37.5 µM | GI50 [8]: > 37.5 µM | TGI [8]: > 37.5 µM | GI50 [9]: > 37.5 µM | TGI [9]: > 37.5 µM | GI50 [10]: > 37.5 µM | TGI [10]: > 37.5 µM | GI50 [11]: > 37.5 µM | TGI [11]: > 37.5 µM | GI50 [12]: > 37.5 µM | TGI [12]: > 37.5 µM | GI50 [13]: > 37.5 µM | TGI [13]: > 37.5 µM | GI50 [14]: > 37.5 µM | TGI [14]: > 37.5 µM | GI50 [15]: > 37.5 µM | TGI [15]: > 37.5 µM | GI50 [16]: > 37.5 µM | TGI [16]: > 37.5 µM | GI50 [17]: > 37.5 µM | TGI [17]: > 37.5 µM | GI50 [18]: > 37.5 µM | TGI [18]: > 37.5 µM | GI50 [19]: > 37.5 µM | TGI [19]: > 37.5 µM | GI50 [20]: > 37.5 µM | TGI [20]: > 37.5 µM | GI50 [21]: > 37.5 µM | TGI [21]: > 37.5 µM | GI50 [22]: > 37.5 µM | TGI [22]: > 37.5 µM | GI50 [23]: > 37.5 µM | TGI [23]: > 37.5 µM | GI50 [24]: > 37.5 µM | TGI [24]: > 37.5 µM | GI50 [25]: > 37.5 µM | TGI [25]: > 37.5 µM | GI50 [26]: > 37.5 µM | TGI [26]: > 37.5 µM | GI50 [27]: > 37.5 µM | TGI [27]: > 37.5 µM | GI50 [28]: > 37.5 µM | TGI [28]: > 37.5 µM | GI50 [29]: > 37.5 µM | TGI [29]: > 37.5 µM | GI50 [30]: > 37.5 µM | TGI [30]: > 37.5 µM | GI50 [31]: > 37.5 µM | TGI [31]: > 37.5 µM | GI50 [32]: > 37.5 µM | TGI [32]: > 37.5 µM | GI50 [33]: > 37.5 µM | TGI [33]: > 37.5 µM | GI50 [34]: > 37.5 µM | TGI [34]: > 37.5 µM | GI50 [35]: > 37.5 µM | TGI [35]: > 37.5 µM | GI50 [36]: > 37.5 µM | TGI [36]: > 37.5 µM | GI50 [37]: > 37.5 µM | TGI [37]: > 37.5 µM | GI50 [38]: > 37.5 µM | TGI [38]: > 37.5 µM | GI50 [39]: > 37.5 µM | TGI [39]: > 37.5 µM | GI50 [40]: > 37.5 µM | TGI [40]: > 37.5 µM | GI50 [41]: > 37.5 µM | TGI [41]: > 37.5 µM | GI50 [57]: > 37.5 µM | TGI [57]: > 37.5 µM | GI50 [42]: > 37.5 µM | TGI [42]: > 37.5 µM | GI50 [43]: > 37.5 µM | TGI [43]: > 37.5 µM | GI50 [44]: > 37.5 µM | TGI [44]: > 37.5 µM | GI50 [45]: > 37.5 µM | TGI [45]: > 37.5 µM | GI50 [46]: > 37.5 µM | TGI [46]: > 37.5 µM | GI50 [47]: > 37.5 µM | TGI [47]: > 37.5 µM | GI50 [48]: > 37.5 µM | TGI [48]: > 37.5 µM | GI50 [49]: > 37.5 µM | TGI [49]: > 37.5 µM | GI50 [50]: > 37.5 µM | TGI [50]: > 37.5 µM | GI50 [51]: > 37.5 µM | TGI [51]: > 37.5 µM | GI50 [52]: > 37.5 µM | TGI [52]: > 37.5 µM | GI50 [53]: > 37.5 µM | TGI [53]: > 37.5 µM | GI50 [54]: > 37.5 µM | TGI [54]: > 37.5 µM | GI50 [55]: > 37.5 µM | TGI [55]: > 37.5 µM | GI50 [56]: > 37.5 µM | TGI [56]: > 37.5 µM
